# Experimental data: patent US20260083674A1, “OXAZOLIDINONE LIPOSOME COMPOSITIONS” (priority 2021, published 2026)
# Where two headings read alike, the source gives them in different places.
# Tested on: M. tuberculosis MDR strains M70, M28, M94, M14, TN5904 and H37Rv
# Test: microbe, parasite or virus in culture
# Assay type: cell-based, Mycobacterium tuberculosis
# Conditions: for MIC: Mycobacterium tuberculosis, H37RV; for MIC, μg/mL in M. tuberculosis strain: M14: MDR strain M14, MABA assay; for MIC, μg/mL in M. tuberculosis strain: M28: MDR strain M28, MABA assay; for MIC, μg/mL in M. tuberculosis strain: M70: MDR strain M70, MABA assay; for MIC, μg/mL in M. tuberculosis strain: M94: MDR strain M94, MABA assay; for MIC, μg/mL in M. tuberculosis strain: TN5904: MDR strain TN5904, MABA assay; for MIC, μg/mL in M. tuberculosis strain: H37Rv: drug-susceptible strain H37Rv, MABA assay
# [1] = read-out: MIC, μg/mL in M. tuberculosis strain: M28
# [2] = read-out: MIC, μg/mL in M. tuberculosis strain: M94
smiles,measurement,setting,value
Cn1nnc(-c2ccc(-c3ccc(N4C[C@H](CN)OC4=O)cc3F)cn2)n1 [AKG-3],MIC,[1],0.06 µg/mL
same,MIC,[2],0.06 µg/mL
Cl.Cl.NCCn1nnc(-c2ccc(-c3ccc(N4C[C@H](CN)OC4=O)cc3F)cn2)n1 [AKG-29],MIC,[1],0.125 µg/mL
same,MIC,[2],0.125 µg/mL
CC(=O)NC[C@H]1CN(c2ccc(-c3ccc(-c4nnn(CCN(C)C)n4)nc3)c(F)c2)C(=O)O1 [AKG-38],MIC,"read-out: MIC, μg/mL in M. tuberculosis strain: TN5904",0.03 µg/mL
NNC(=O)c1ccncc1 [INH],"MIC, μg/mL in M. tuberculosis strain: M14",,>2 µg/mL
same,"MIC, μg/mL in M. tuberculosis strain: M28",,>2 µg/mL
same,"MIC, μg/mL in M. tuberculosis strain: M70",,>2 µg/mL
same,"MIC, μg/mL in M. tuberculosis strain: M94",,>2 µg/mL
same,"MIC, μg/mL in M. tuberculosis strain: TN5904",,2 µg/mL
same,"MIC, μg/mL in M. tuberculosis strain: H37Rv",,0.06 µg/mL
COc1c(N2C[C@@H]3CCCN[C@@H]3C2)c(F)cc2c(=O)c(C(=O)O)cn(C3CC3)c12 [MOX],MIC,[2],0.125 µg/mL
CO[C@H]1/C=C/O[C@@]2(C)Oc3c(C)c(O)c4c(O)c(c(/C=N/N5CCN(C)CC5)c(O)c4c3C2=O)NC(=O)/C(C)=C\C=C\[C@H](C)[C@H](O)[C@@H](C)[C@@H](O)[C@@H](C)[C@H](OC(C)=O)[C@@H]1C [RIF],"MIC, μg/mL in M. tuberculosis strain: M14",,0.06 µg/mL
same,"MIC, μg/mL in M. tuberculosis strain: M28",,>8 µg/mL
same,"MIC, μg/mL in M. tuberculosis strain: M70",,>8 µg/mL
same,"MIC, μg/mL in M. tuberculosis strain: TN5904",,>8 µg/mL
same,"MIC, μg/mL in M. tuberculosis strain: H37Rv",,0.06 µg/mL
CN[C@@H]1[C@H](O[C@H]2[C@H](O[C@H]3[C@H](O)[C@@H](O)[C@H](N=C(N)N)[C@@H](O)[C@@H]3N=C(N)N)O[C@@H](C)[C@]2(O)C=O)O[C@@H](CO)[C@H](O)[C@H]1O [STR],"MIC, μg/mL in M. tuberculosis strain: M14",,>8 µg/mL
same,"MIC, μg/mL in M. tuberculosis strain: M28",,0.125 µg/mL
same,"MIC, μg/mL in M. tuberculosis strain: M70",,2 µg/mL
same,"MIC, μg/mL in M. tuberculosis strain: M94",,>8 µg/mL
same,"MIC, μg/mL in M. tuberculosis strain: TN5904",,1 µg/mL
same,"MIC, μg/mL in M. tuberculosis strain: H37Rv",,0.5 µg/mL
